Results as given in US8747881B2, “Intraluminal medical devices in combination with therapeutic agents” (Cordis Corporation, priority 2003, dated 2014).
Values belong to the molecule of their own block, whether it stands above or below them.

How the values were obtained:
[1] = Drug concentration in liquid formulations by liquid chromatography / HPLC; assay type: physicochemical
Protocol: Table 8, shown below, summarizes the concentrations of the excipient, the co-solvents and the drug for four different liquid formulations in accordance with exemplary embodiments of the present invention.
In another exemplary embodiment, the liquid formulation of sirolimus comprises water and ethanol as co-solvents and Vitamin E TPGS as the excipient. The liquid formulation was created utilizing the following process. Two hundred milligrams of sirolimus and two grams of ethanol were added to a pre-weighed twenty milliliter scintillation vial. The vial was vortexed and sonicated until the sirolimus was completely dissolved. Approximately six hundred milligrams of Vitamin E TPGS was then added to the solution of ethanol and sirolimus. The vial was vortexed again until a clear yellowish solution was obtained. Nitrogen gas was then used to reduce the amount of ethanol in the vial to approximately two hundred twenty-nine milligrams. In a separate vial, three hundred milligrams of Vitamin E TPGS was dissolved in eleven milliliters of purified water while undergoing vortexing. The Vitamin E TPGS and water solution was then added to the first vial containing the sirolimus, Vitamin E TPGS and ethanol. The first vial was then vortexed vigorously and continuously for three minutes. […] The foam gradually disappeared after sitting at room temperature. […]

[2] = test system: human smooth muscle cells; test: Cladribine Example: PDGF-stimulated cell proliferation, smooth muscle cells; assay type: cell-based; settings: from the IC50 values
Protocol: To assess the ability of cladribine to prevent cell proliferation, human smooth muscle or endothelial cells (Clonetics, Walkersville, Md.) were seeded at a density of 2000 cells/cm^2 (approximately 3600 cells/well) into each well of 12-well plates and cultured with 1.5 ml of growth medium containing five percent fetal calf serum (FCS). After twenty-four hours, the growth medium was changed and fresh medium containing 10 ng/ml platelet-derived growth factor AB (PDGF AB; LIFE Technologies), as well as various concentrations of cladribine (0.001-10,000 nM) were added with triplicate wells. Medium was replaced with fresh cladribine-containing medium after three days. On day six, cells were detached by trypsinization to yield a cell suspension, lightly centrifuged to pellet and then counted manually using a Neubauer hemocytometer system. Cell viability was assessed by trypan blue exclusion.

[3] = test system: human coronary artery smooth muscle cells; test: Anti-proliferative activity in non-synchronized cultured cells stimulated with two percent fetal bovine serum; assay type: cell-based; settings: for effect on the anti-proliferative activity of rapamycin when added: non-synchronized cells, added to cells treated with rapamycin
From the text: The multiple curves represent various concentrations of mycophenolic acid ranging from zero to one thousand nanomolar concentrations. […] This potentiation observed in cultured coronary artery smooth muscle cells preferably translates to an enhancement in anti-restenotic efficacy following vascular injury and a reduction in the required amount of either agent to achieve the desired anti-restenotic effect.
FIG. 58 illustrates, in graphical format, the anti-proliferative activity of cladribine in non-synchronized cultured human coronary artery smooth muscle cells stimulated with two percent fetal bovine serum.
The multiple curves represent various concentrations of cladribine ranging from zero to nine hundred nanomolar concentrations. […] As illustrated, the percent inhibition increases substantially as the dose of cladribine increases.

[4] = test system: human coronary artery smooth muscle cells; test: Anti-proliferative activity in synchronized cultured cells stimulated with two percent fetal bovine serum; assay type: cell-based; settings: for effect on the anti-proliferative activity of rapamycin when added: added to cells treated with rapamycin
From the text: (§1) The multiple curves represent various concentrations of topotecan ranging from zero to three hundred nanomolar concentrations.
(§2) The multiple curves represent various concentrations of etoposide ranging from zero to eight hundred nanomolar concentrations.
The multiple curves represent various concentrations of Panzem® ranging from zero to 100 micromolar concentrations.

cell viability = test: Cell viability assay; assay type: cell-based
From the text: as §1, §2

[5] = test system: human coronary artery smooth muscle cell; test: MTS cytotoxicity assay; assay type: cell-based; settings: concentrations up to 30,000.00 nanomolar, FIG. 69
From the text: Typically, a control is utilized to determine baseline toxicity.

[6] = test system: human coronary artery smooth muscle cell; test: In vitro cell culture study of coronary artery smooth muscle cell proliferation; assay type: cell-based
From the text: FIG. 51 is a graph of the inhibition of coronary artery smooth muscle cells by trichostatin A in a cell culture study.

tumor cell lines = settings: cited from earlier work

concentration in the final solution (HPLC assay) ([1]; ethanol (less than two percent), Vitamin E TPGS and water): 15000 µg/mL
Compound: CO[C@H]1C[C@@H]2CC[C@@H](C)[C@@](O)(O2)C(=O)C(=O)N2CCCC[C@H]2C(=O)O[C@H]([C@H](C)C[C@@H]2CC[C@@H](OC(=O)C(C)(CO)CO)[C@H](OC)C2)CC(=O)[C@H](C)/C=C(\C)[C@@H](O)[C@@H](OC)C(=O)[C@H](C)C[C@H](C)/C=C/C=C/C=C/1C [CCI-779]

Compound: Nc1nc(Cl)nc2c1ncn2[C@H]1C[C@H](O)[C@@H](CO)O1 [Cladribine, 2-chlorodeoxyadenosine]
potency as inhibitor of smooth muscle cells relative to endothelial cells [2]: approximately twice | effect on the anti-proliferative activity of rapamycin when added [3]: increases the percent inhibition of rapamycin alone | inhibition of human coronary artery smooth muscle cell proliferation ([3]; non-synchronized, two percent fetal bovine serum, FIG. 58): completely inhibits

Compound: COc1cc([C@@H]2c3cc4c(cc3[C@@H](O[C@@H]3O[C@@H]5CO[C@@H](C)O[C@H]5[C@H](O)[C@H]3O)[C@H]3COC(=O)[C@H]23)OCO4)cc(OC)c1O [Etoposide, etoposide]
effect on the anti-proliferative activity of rapamycin when added [4]: increases the percent inhibition of rapamycin alone | cytotoxicity (cell viability; concentrations up to ten micromolar): non-cytotoxic

Compound: COc1cc2c(cc1O)CC[C@@H]1[C@@H]2CC[C@]2(C)[C@@H](O)CC[C@@H]12 [Panzem®, 2-methoxyestradiol]
inhibition of human coronary artery smooth muscle cell proliferation in vitro ([4]; FIG. 66): extremely effective inhibitor | effect on the anti-proliferative activity of rapamycin when added [4]: increases the percent of inhibition of rapamycin alone | cell survival (MTS assay) [5]: do not reduce human coronary artery smooth muscle cell survival

concentration relative to the solubility of sirolimus in water ([1]; 4 mg/ml formulation with PEG 200, ethanol and water): four hundred to about one thousand
Compound: CO[C@H]1C[C@@H]2CC[C@@H](C)[C@@](O)(O2)C(=O)C(=O)N2CCCC[C@H]2C(=O)O[C@H]([C@H](C)C[C@@H]2CC[C@@H](O)[C@H](OC)C2)CC(=O)[C@H](C)/C=C(\C)[C@@H](O)[C@@H](OC)C(=O)[C@H](C)C[C@H](C)/C=C/C=C/C=C/1C [Rapamycin, rapamycin]

Compound: CC[C@@]1(O)C(=O)OCc2c1cc1n(c2=O)Cc2cc3c(CN(C)C)c(O)ccc3nc2-1 [Topotecan, topotecan]
effect on the anti-proliferative activity of rapamycin when added [4]: increases the percent inhibition of rapamycin alone | cytotoxicity (cell viability; concentrations up to one micromolar): non-cytotoxic

Compound: COc1c(C)c2c(c(O)c1C/C=C(\C)CCC(=O)O)C(=O)OC2 [mycophenolic acid]
effect on the anti-proliferative activity of rapamycin when added [3]: potentiates the anti-proliferative activity of rapamycin

Compound: CC(/C=C/C(=O)NO)=C\[C@@H](C)C(=O)c1ccc(N(C)C)cc1 [trichostatin A]
IC50 ([6]; human coronary artery smooth muscle cell proliferation, read-out: anti-proliferative IC50): ~6 nM | inhibition of human coronary artery smooth muscle cell proliferation ([6]; in vitro cell culture): completely inhibit | anti-proliferative IC50 (tumor cell lines): low nM range
